According to PubChem BioAssay AID1919001 (Molecular Pharmacology Branch, DTP, NCI, 2023):
Values joined by “and” are separate entries in the source; they are usually repeats but may differ in a detail not shown here. Equal values may be shown once.

Test system: 699152-130-R-J1-PDC complex spheroid growth
Assay: Anticancer human tumor 699152-130-R-J1-PDC patient-derived pancreatic carcinoma cell line growth inhibition [AhR]
Settings: for viability, T/C: stronger effect = lower value
In short: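 Agents were dosed in half-log steps down from roughly clinical Cmax, or from 10 microM where Cmax was unknown, alone and with AhR antagonists. Read-out: percent test/control growth of tumor spheroids containing HUVEC and MSC stromal cells.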

[1] = curve of first compound, second compound 0.1 µM
[2] = curve of first compound, second compound 0.316 µM
[3] = curve of first compound, second compound 1 µM
[4] = curve of first compound, second compound 3.16 µM
[5] = curve of first compound, second compound 10 µM
[6] = second compound 0.1 µM, first compound 0.0316 µM
[7] = second compound 0.1 µM, first compound 0.1 µM
[8] = second compound 0.1 µM, first compound 0.316 µM
[9] = second compound 0.1 µM, first compound 1 µM
[10] = second compound 0.1 µM, first compound 3.16 µM
[11] = second compound 0.1 µM, first compound 10 µM
[12] = second compound 0.316 µM, first compound 0.0316 µM
[13] = second compound 0.316 µM, first compound 0.1 µM
[14] = second compound 0.316 µM, first compound 0.316 µM
[15] = second compound 0.316 µM, first compound 1 µM
[16] = second compound 0.316 µM, first compound 3.16 µM
[17] = second compound 0.316 µM, first compound 10 µM
[18] = second compound 1 µM, first compound 0.0316 µM
[19] = second compound 1 µM, first compound 0.1 µM
[20] = second compound 1 µM, first compound 0.316 µM
[21] = second compound 1 µM, first compound 1 µM
[22] = second compound 1 µM, first compound 3.16 µM
[23] = second compound 1 µM, first compound 10 µM
[24] = second compound 3.16 µM, first compound 0.0316 µM
[25] = second compound 3.16 µM, first compound 0.1 µM
[26] = second compound 3.16 µM, first compound 0.316 µM
[27] = second compound 3.16 µM, first compound 1 µM
[28] = second compound 3.16 µM, first compound 3.16 µM
[29] = second compound 3.16 µM, first compound 10 µM
[30] = second compound 10 µM, first compound 0.0316 µM
[31] = second compound 10 µM, first compound 0.1 µM
[32] = second compound 10 µM, first compound 0.316 µM
[33] = second compound 10 µM, first compound 1 µM
[34] = second compound 10 µM, first compound 3.16 µM
[35] = second compound 10 µM, first compound 10 µM
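Further: compound exposure lasted 7 days after spheroids had grown for 3 days.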

Compound	IC50 [1] [µM]	IC50 [2] [µM]	IC50 [3] [µM]	IC50 [4] [µM]	IC50 [5] [µM]	viability, T/C [6] [%]	viability, T/C [7] [%]	viability, T/C [8] [%]	viability, T/C [9] [%]	viability, T/C [10] [%]	viability, T/C [11] [%]	viability, T/C [12] [%]	viability, T/C [13] [%]	viability, T/C [14] [%]	viability, T/C [15] [%]	viability, T/C [16] [%]	viability, T/C [17] [%]	viability, T/C [18] [%]	viability, T/C [19] [%]	viability, T/C [20] [%]	further results
NS(=O)(=O)OCC1CC(n2ccc3c(NC4CCc5ccccc54)ncnc32)CC1O (configuration not stated) + Cc1cncc(-c2nc(NCCc3c[nH]c4ccccc34)c3ncn(C(C)C)c3n2)c1	0.898	0.837	0.889	0.512	< 0.0316	112	128	145	41.8	21.5	20.9	114	132	147	35.2	18.9	21.4	131	156	149	viability, T/C [21]: 39.1%; viability, T/C [22]: 18.8%; viability, T/C [23]: 18.3%; viability, T/C [24]: 104%; viability, T/C [25]: 103%; viability, T/C [26]: 74.2%; viability, T/C [27]: 16.5%; viability, T/C [28]: 8.14%; viability, T/C [29]: 9.66%; viability, T/C [30]: 23.7%; viability, T/C [31]: 17.8%; viability, T/C [32]: 10.1%; viability, T/C [33]: 5.16%; viability, T/C [34]: 4.2%; viability, T/C [35]: 3.67%
CC(C)c1c(-c2ccccc2)nc2c(C#N)c[nH]n2c1=O																					viability, T/C (compound 0.0316 µM): 108% and 92.1% and 105%; viability, T/C (compound 0.1 µM): 102% (2×) and 87.1%; viability, T/C (compound 0.316 µM): 109% and 90% and 107%; viability, T/C (compound 1 µM): 97.5% and 90.3% and 96%; viability, T/C (compound 3.16 µM): 112% and 104% and 99.7%; viability, T/C (compound 10 µM): 107% and 88.4% and 99.3%; IC50 (curve of compound): > 10 µM
O=C(c1cc(Cc2n[nH]c(=O)c3ccccc23)ccc1F)N1CCN(C(=O)C2CC2)CC1 + Cc1cncc(-c2nc(NCCc3c[nH]c4ccccc34)c3ncn(C(C)C)c3n2)c1	> 10	> 10	> 10	> 10	< 0.0316	119	104	105	97.6	120	82.9	104	101	111	105	95.3	90	119	120	119	viability, T/C [21]: 116%; viability, T/C [22]: 107%; viability, T/C [23]: 106%; viability, T/C [24]: 96.8%; viability, T/C [25]: 93.7%; viability, T/C [26]: 89.7%; viability, T/C [27]: 90%; viability, T/C [28]: 95.1%; viability, T/C [29]: 93.4%; viability, T/C [30]: 9.79%; viability, T/C [31]: 10.4%; viability, T/C [32]: 12.8%; viability, T/C [33]: 11.7%; viability, T/C [34]: 11.9%; viability, T/C [35]: 15.3%
